Measurements as given in patent publication US20260166128A1, “HUMAN AMYLIN ANALOG, AND DERIVATIVE THEREOF AND USE THEREOF” (priority 2022, published 2026).
Numbered stars: 1 amine (or outer) side, 2 acyl side, 3 side chain; on linkers, the order of the positions; unused ones are H or OH. Bridge positions count the residues as written; N and C are the ends. Square brackets hold non-standard residues; d marks the D form. Side chains are listed from the residue outwards. Peptide text beside a SMILES is read from it. * marks the point of attachment. C20 diacid = O=C(O)CCCCCCCCCCCCCCCCCCC(=O)*; C18 diacid = O=C(O)CCCCCCCCCCCCCCCCC(=O)*; γGlu = O=C(O)[C@H](CCC(=O)[*:2])N[*:1]; Hyp = O=C(O)[C@@H]1C[C@@H](O)CN1; Cit = NC(=O)NCCC[C@H](N)C(=O)O; AEEA = NCCOCCOCC(=O)O

Biological target: T1, human amylin receptor (Homo sapiens, UniProt O60896+P30988)
T1 construct: host or cells: CHO-K1/Ga15/AMY3 cells, further stably transfected with a CRE-luciferase plasmid
T1 sequence (P30988 25-474): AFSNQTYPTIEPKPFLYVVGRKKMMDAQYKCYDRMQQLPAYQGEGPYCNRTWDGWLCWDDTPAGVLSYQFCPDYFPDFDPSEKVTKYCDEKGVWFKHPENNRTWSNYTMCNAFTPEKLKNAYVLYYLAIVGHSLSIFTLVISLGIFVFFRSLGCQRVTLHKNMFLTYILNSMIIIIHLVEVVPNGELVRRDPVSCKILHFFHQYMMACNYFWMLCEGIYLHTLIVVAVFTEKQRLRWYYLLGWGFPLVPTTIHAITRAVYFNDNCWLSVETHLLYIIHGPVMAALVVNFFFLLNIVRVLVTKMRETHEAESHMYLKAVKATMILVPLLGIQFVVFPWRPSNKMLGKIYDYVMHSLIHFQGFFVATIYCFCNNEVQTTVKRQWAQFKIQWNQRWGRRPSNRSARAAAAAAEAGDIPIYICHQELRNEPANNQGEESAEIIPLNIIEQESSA
T1 sequence (O60896 24-148 partner): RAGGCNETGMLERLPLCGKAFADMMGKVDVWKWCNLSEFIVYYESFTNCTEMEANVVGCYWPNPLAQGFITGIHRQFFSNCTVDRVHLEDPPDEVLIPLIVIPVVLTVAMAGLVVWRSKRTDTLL
Experiment: Luciferase assay of amylin derivatives in amylin receptor/CRE-luc CHO cell line
Type: cell-based
Details: CHO-K1/Ga15/AMY3 CRE-luc cells, 24 hours incubation, F12 medium containing 10% FBS; read-out: EC50
Method: The experiment was intended to detect the activity or efficacy of the amylin derivatives on a human amylin receptor in vitro by luciferase assay.
50 μL of growth medium (F12 medium containing 10% FBS) was added into each well of a white 96-well plate, and the stably transfected amylin/CRE-lue CHO cells were inoculated into the white 96-well plate at a density of about 20,000 cells/well for activity determination.

| SMILES | EC50 |
| --- | --- |
| CC[C@H](C)[C@H](NC(=O)[C@@H]1CCCN1C(=O)CNC(=O)[C@H](CC(C)C)NC(=O)[C@H](CC(N)=O)NC(=O)[C@H](CCCCNC(=O)CC[C@H](NC(=O)CCCCCCCCCCCCCCCCC(=O)O)C(=O)O)NC(=O)[C@H](CO)NC(=O)[C@H](CO)NC(=O)[C@H](Cc1c[nH]cn1)NC(=O)[C@H](CCCNC(=N)N)NC(=O)[C@H](CC(C)C)NC(=O)[C@H](Cc1ccccc1)NC(=O)[C@H](CC(=O)O)NC(=O)[C@H](C)NC(=O)[C@H](CC(C)C)NC(=O)[C@H](CCCNC(=N)N)NC(=O)[C@H](CCC(N)=O)NC(=O)[C@@H](NC(=O)[C@H](C)NC(=O)[C@@H]1CSSC[C@H](NC(=O)[C@@H](N)CCCNC(=N)N)C(=O)N[C@@H](CC(N)=O)C(=O)N[C@@H]([C@@H](C)O)C(=O)N[C@@H](C)C(=O)N[C@@H]([C@@H](C)O)C(=O)N1)[C@@H](C)O)C(=O)N[C@@H](CC(C)C)C(=O)N1CCC[C@H]1C(=O)N1CCC[C@H]1C(=O)N[C@H](C(=O)N[C@@H](CC(N)=O)C(=O)N[C@H](C(=O)NCC(=O)N[C@@H](CO)C(=O)N[C@@H](CC(N)=O)C(=O)N[C@H](C(=O)N1C[C@H](O)C[C@H]1C(N)=O)[C@@H](C)O)C(C)C)[C@@H](C)O [PD092] (H-RCNTATCATQRLADFLRHSSK([γGlu-C18 diacid])NLGPILPPTNVGSNT[Hyp]-NH2; disulfide 2-7) | 0.016 nM |
| CC[C@H](C)[C@H](NC(=O)[C@@H]1CCCN1C(=O)CNC(=O)[C@H](CC(C)C)NC(=O)[C@H](CC(N)=O)NC(=O)[C@H](CCCCNC(=O)CC[C@H](NC(=O)CCCCCCCCCCCCCCCCCCC(=O)O)C(=O)O)NC(=O)[C@H](CO)NC(=O)[C@H](CO)NC(=O)[C@H](Cc1c[nH]cn1)NC(=O)[C@H](CCCNC(=N)N)NC(=O)[C@H](CC(C)C)NC(=O)[C@H](Cc1ccccc1)NC(=O)[C@H](CC(=O)O)NC(=O)[C@H](C)NC(=O)[C@H](CC(C)C)NC(=O)[C@H](CCCNC(=N)N)NC(=O)[C@H](CCC(N)=O)NC(=O)[C@@H](NC(=O)[C@H](C)NC(=O)[C@@H]1CSSC[C@H](NC(=O)[C@@H](N)CCCNC(=N)N)C(=O)N[C@@H](CC(N)=O)C(=O)N[C@@H]([C@@H](C)O)C(=O)N[C@@H](C)C(=O)N[C@@H]([C@@H](C)O)C(=O)N1)[C@@H](C)O)C(=O)N[C@@H](CC(C)C)C(=O)N1CCC[C@H]1C(=O)N1CCC[C@H]1C(=O)N[C@H](C(=O)N[C@@H](CC(N)=O)C(=O)N[C@H](C(=O)NCC(=O)N[C@@H](CO)C(=O)N[C@@H](CC(N)=O)C(=O)N[C@H](C(=O)N1C[C@H](O)C[C@H]1C(N)=O)[C@@H](C)O)C(C)C)[C@@H](C)O [PD090] (H-RCNTATCATQRLADFLRHSSK([γGlu-C20 diacid])NLGPILPPTNVGSNT[Hyp]-NH2; disulfide 2-7) | 0.031 nM |
| CC[C@H](C)[C@H](NC(=O)[C@@H]1CCCN1C(=O)CNC(=O)[C@H](CC(C)C)NC(=O)[C@H](CCCCNC(=O)COCCOCCNC(=O)COCCOCCNC(=O)CC[C@H](NC(=O)CCCCCCCCCCCCCCCCC(=O)O)C(=O)O)NC(=O)[C@H](CC(N)=O)NC(=O)[C@H](CO)NC(=O)[C@H](CO)NC(=O)[C@H](Cc1c[nH]cn1)NC(=O)[C@H](CCCNC(=N)N)NC(=O)[C@H](CC(C)C)NC(=O)[C@H](Cc1ccccc1)NC(=O)[C@H](CC(=O)O)NC(=O)[C@H](C)NC(=O)[C@H](CC(C)C)NC(=O)[C@H](CCCNC(=N)N)NC(=O)[C@H](CCC(N)=O)NC(=O)[C@@H](NC(=O)[C@H](C)NC(=O)[C@@H]1CSSC[C@H](NC(=O)[C@@H](N)CCCNC(=N)N)C(=O)N[C@@H](CC(N)=O)C(=O)N[C@@H]([C@@H](C)O)C(=O)N[C@@H](C)C(=O)N[C@@H]([C@@H](C)O)C(=O)N1)[C@@H](C)O)C(=O)N[C@@H](CC(C)C)C(=O)N1CCC[C@H]1C(=O)N1CCC[C@H]1C(=O)N[C@H](C(=O)N[C@@H](CC(N)=O)C(=O)N[C@H](C(=O)NCC(=O)N[C@@H](CO)C(=O)N[C@@H](CC(N)=O)C(=O)N[C@H](C(=O)N1C[C@H](O)C[C@H]1C(N)=O)[C@@H](C)O)C(C)C)[C@@H](C)O [PD089] (H-RCNTATCATQRLADFLRHSSNK([AEEA-AEEA-γGlu-C18 diacid])LGPILPPTNVGSNT[Hyp]-NH2; disulfide 2-7) | 0.018 nM |
| CC[C@H](C)[C@H](NC(=O)[C@@H]1CCCN1C(=O)[C@@H]1CCCN1C(=O)[C@H](CC(C)C)NC(=O)[C@H](CC(N)=O)NC(=O)[C@H](CC(N)=O)NC(=O)[C@H](CO)NC(=O)[C@H](CO)NC(=O)[C@H](Cc1c[nH]cn1)NC(=O)[C@H](CCCNC(=N)N)NC(=O)[C@H](CC(C)C)NC(=O)[C@H](Cc1ccccc1)NC(=O)[C@H](CC(=O)O)NC(=O)[C@H](C)NC(=O)[C@H](CC(C)C)NC(=O)[C@H](CCCNC(=N)N)NC(=O)[C@H](CCC(N)=O)NC(=O)[C@@H](NC(=O)[C@H](C)NC(=O)[C@@H]1CSSC[C@H](NC(=O)[C@H](CCCCN)NC(=O)CC[C@H](NC(=O)CCCCCCCCCCCCCCCCCCC(=O)O)C(=O)O)C(=O)N[C@@H](CC(N)=O)C(=O)N[C@@H]([C@@H](C)O)C(=O)N[C@@H](C)C(=O)N[C@@H]([C@@H](C)O)C(=O)N1)[C@@H](C)O)C(=O)N[C@@H](CC(C)C)C(=O)N1CCC[C@H]1C(=O)N1CCC[C@H]1C(=O)N[C@H](C(=O)N[C@@H](CC(N)=O)C(=O)N[C@H](C(=O)NCC(=O)N[C@@H](CO)C(=O)N[C@@H](CC(N)=O)C(=O)N[C@H](C(=O)N1CCC[C@H]1C(N)=O)[C@@H](C)O)C(C)C)[C@@H](C)O [PD163] ({C20 diacid-γGlu}-KCNTATCATQRLADFLRHSSNNLPPILPPTNVGSNTP-NH2; disulfide 2-7 (inferred)) | 0.084 nM |
| CC[C@H](C)[C@H](NC(=O)[C@@H]1CCCN1C(=O)CNC(=O)[C@H](CC(C)C)NC(=O)[C@H](CC(N)=O)NC(=O)[C@H](CC(N)=O)NC(=O)[C@H](CCCCNC(=O)COCCOCCNC(=O)COCCOCCNC(=O)CC[C@H](NC(=O)CCCCCCCCCCCCCCCCCCC(=O)O)C(=O)O)NC(=O)[C@H](CO)NC(=O)[C@H](Cc1c[nH]cn1)NC(=O)[C@H](CCCNC(=N)N)NC(=O)[C@H](CC(C)C)NC(=O)[C@H](Cc1ccccc1)NC(=O)[C@H](CC(=O)O)NC(=O)[C@H](C)NC(=O)[C@H](CC(C)C)NC(=O)[C@H](CCCNC(=N)N)NC(=O)[C@H](CCC(N)=O)NC(=O)[C@@H](NC(=O)[C@H](C)NC(=O)[C@@H]1CSSC[C@H](NC(=O)[C@@H](N)CCCNC(=N)N)C(=O)N[C@@H](CC(N)=O)C(=O)N[C@@H]([C@@H](C)O)C(=O)N[C@@H](C)C(=O)N[C@@H]([C@@H](C)O)C(=O)N1)[C@@H](C)O)C(=O)N[C@@H](CC(C)C)C(=O)N1CCC[C@H]1C(=O)N1CCC[C@H]1C(=O)N[C@H](C(=O)N[C@@H](CC(N)=O)C(=O)N[C@H](C(=O)NCC(=O)N[C@@H](CO)C(=O)N[C@@H](CC(N)=O)C(=O)N[C@H](C(=O)N1C[C@H](O)C[C@H]1C(N)=O)[C@@H](C)O)C(C)C)[C@@H](C)O [PD095] (H-RCNTATCATQRLADFLRHSK([AEEA-AEEA-γGlu-C20 diacid])NNLGPILPPTNVGSNT[Hyp]-NH2; disulfide 2-7) | 0.047 nM |
| CC[C@H](C)[C@H](NC(=O)[C@@H]1CCCN1C(=O)[C@H](CCCNC(N)=O)NC(=O)[C@H](CC(C)C)NC(=O)[C@H](CC(N)=O)NC(=O)[C@H](CC(N)=O)NC(=O)[C@H](CO)NC(=O)[C@H](CO)NC(=O)[C@H](Cc1c[nH]cn1)NC(=O)[C@H](CCCNC(=N)N)NC(=O)[C@H](CC(C)C)NC(=O)[C@H](Cc1ccccc1)NC(=O)[C@H](CC(=O)O)NC(=O)[C@H](C)NC(=O)[C@H](CC(C)C)NC(=O)[C@H](CCCNC(=N)N)NC(=O)[C@H](CCC(N)=O)NC(=O)[C@@H](NC(=O)[C@H](C)NC(=O)[C@@H]1CSSC[C@H](NC(=O)[C@H](CCCCN)NC(=O)CC[C@H](NC(=O)CCCCCCCCCCCCCCCCCCC(=O)O)C(=O)O)C(=O)N[C@@H](CC(N)=O)C(=O)N[C@@H]([C@@H](C)O)C(=O)N[C@@H](C)C(=O)N[C@@H]([C@@H](C)O)C(=O)N1)[C@@H](C)O)C(=O)N[C@@H](CC(C)C)C(=O)N1CCC[C@H]1C(=O)N1CCC[C@H]1C(=O)N[C@H](C(=O)N[C@@H](CC(N)=O)C(=O)N[C@H](C(=O)NCC(=O)N[C@@H](CO)C(=O)N[C@@H](CC(N)=O)C(=O)N[C@H](C(=O)N1CCC[C@H]1C(N)=O)[C@@H](C)O)C(C)C)[C@@H](C)O [PD171] ({C20 diacid-γGlu}-KCNTATCATQRLADFLRHSSNNL[Cit]PILPPTNVGSNTP-NH2; disulfide 2-7 (inferred)) | 0.053 nM |
| CC[C@H](C)[C@H](NC(=O)[C@@H]1CCCN1C(=O)[C@H](Cc1c[nH]cn1)NC(=O)[C@H](CC(C)C)NC(=O)[C@H](CC(N)=O)NC(=O)[C@H](CC(N)=O)NC(=O)[C@H](CO)NC(=O)[C@H](CO)NC(=O)[C@H](Cc1c[nH]cn1)NC(=O)[C@H](CCCNC(=N)N)NC(=O)[C@H](CC(C)C)NC(=O)[C@H](Cc1ccccc1)NC(=O)[C@H](CC(=O)O)NC(=O)[C@H](C)NC(=O)[C@H](CC(C)C)NC(=O)[C@H](CCCNC(=N)N)NC(=O)[C@H](CCC(N)=O)NC(=O)[C@@H](NC(=O)[C@H](C)NC(=O)[C@@H]1CSSC[C@H](NC(=O)[C@H](CCCCN)NC(=O)CC[C@H](NC(=O)CCCCCCCCCCCCCCCCCCC(=O)O)C(=O)O)C(=O)N[C@@H](CC(N)=O)C(=O)N[C@@H]([C@@H](C)O)C(=O)N[C@@H](C)C(=O)N[C@@H]([C@@H](C)O)C(=O)N1)[C@@H](C)O)C(=O)N[C@@H](CC(C)C)C(=O)N1CCC[C@H]1C(=O)N1CCC[C@H]1C(=O)N[C@H](C(=O)N[C@@H](CC(N)=O)C(=O)N[C@H](C(=O)NCC(=O)N[C@@H](CO)C(=O)N[C@@H](CC(N)=O)C(=O)N[C@H](C(=O)N1C[C@H](O)C[C@H]1C(N)=O)[C@@H](C)O)C(C)C)[C@@H](C)O [PD159] ({C20 diacid-γGlu}-KCNTATCATQRLADFLRHSSNNLHPILPPTNVGSNT[Hyp]-NH2; disulfide 2-7) | 0.037 nM |
